Reference: patent US20240327463A1, “ANTIBACTERIAL PRODUCTS” (priority 2017, published 2024)
Values after ≈ are worked out from the molar mass of the structure shown. Bridge positions count the residues as written; N and C are the ends. Square brackets hold non-standard residues; d marks the D form. Peptide text beside a SMILES is read from it. I, II: the chains in the order shown. dNMeF = CN[C@H](Cc1ccccc1)C(=O)O

How the values were obtained:
A. baumannii = type: cell-based
Procedure, shortened: (§1)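 Values come from three repeat experiments. Growth and compound dilution both used Mueller Hinton broth, with the dilution series extended to well 11 and every incubation held at 37 °C.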

MRSA = type: cell-based, Staphylococcus aureus
Procedure, shortened: as §1

E. coli = type: cell-based, Escherichia coli
Protocol: Bacteria were grown on Mueller Hinton broth (oxoid). All incubations were at 37° C. Dilutions were carried out using Mueller Hinton. […] This process was repeated up to well 11. […] This was repeated three times. […] Results are tabulated in the Examples.

MRSA DM21455 (eye) = assay: microbe, parasite or virus in culture
Procedure, shortened: (§2)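 Peptides were dissolved in DMSO and serially diluted twofold in Mueller Hinton broth from a top concentration of 512 μg/ml. Bacteria were grown in the same broth, and plates were incubated at 37° C for 24 hours. MIC was the lowest concentration showing no visible growth, done three times.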

VRE ATCC 700802 = assay: microbe, parasite or virus in culture
Procedure, shortened: as §2

M. smegmatis ATCC 607 = assay: microbe, parasite or virus in culture; details: Mycolicibacterium smegmatis, ATCC607
Procedure, shortened: as §2

ATCC 29212 = assay: microbe, parasite or virus in culture; details: Enterococcus
Procedure, shortened: as §2

MRSA ATCC 700699 = assay: microbe, parasite or virus in culture
Procedure, shortened: as §2

[1] = tested on: Staphylococcus aureus ATCC 29213; assay: microbe, parasite or virus in culture
Procedure, shortened: as §2

MRSA DR 42412 (sputum) = assay: microbe, parasite or virus in culture
Procedure, shortened: as §2

[2] = tested on: Staphylococcus saprophyticus ATCC 15305; type: cell-based; details: Staphylococcus saprophyticus ATCC 15305; Table 11
Procedure, shortened: as §1

[3] = tested on: Bacillus Cereus ATCC 11788; type: cell-based
Procedure, shortened: as §1

[4] = tested on: Staphylococcus saprophyticus ATCC BAA 750; type: cell-based; details: Staphylococcus saprophyticus ATCC BAA 750; Table 11
Procedure, shortened: as §1

[5] = tested on: Staphylococcus saprophyticus ATCC 49453; type: cell-based; details: Staphylococcus saprophyticus ATCC 49453; Table 11
Procedure, shortened: as §1

[6] = tested on: Bacillus Subtilis ATCC 6633; type: cell-based
Procedure, shortened: as §1

[7] = tested on: Staphylococcus saprophyticus ATCC 49907; type: cell-based; details: Staphylococcus saprophyticus ATCC 49907; Table 11
Procedure, shortened: as §1

[8] = rabbit; 50 μl of 0.3% (w/v) topically 4 times/day; fluorescein staining
Protocol: The in vivo toxicity of Compound 26 in a rabbit corneal damage model was examined. A 50 μl of 0.3% (w/v) solution was applied topically (4 times/day) to the circularly debrided cornea and reepithelialisation was monitored by fluorescein staining. Vehicle alone served as control.

MRSA 1003 = type: cell-based, Staphylococcus aureus
Procedure, shortened: as §1

VRE ATCC 29212 = assay: microbe, parasite or virus in culture; details: ATCC 29212
Procedure, shortened: as §2

S. aureus/MRSA strains = assay: Minimum bactericidal concentrations against S. aureus/MRSA strains; type: cell-based, Staphylococcus aureus; details: tested S. aureus/MRSA strains
Text: (§3) The inclusion of 3 arginines in the above case likely perturbs the amphiphilic character of the teixobactin, resulting in a decrease in activity. […] Importantly, the hydrophobic-hydrophilic balance of these analogues was similar to natural teixobactin (two cationic charges). […] The minimum bactericidal concentrations (MBC) of teixobactin analogues against S. aureus/MRSA strains (Table 11) has been further determined. […] In view of narrow MIC distribution values and bactericidal properties, attention was focused on Compound 26 and further investigated its biological properties.

S. aureus ATCC 29213 [9] = assay: Time-kill kinetics against S. aureus ATCC 29213; type: cell-based, Staphylococcus aureus; details: 0.5 μg/ml or 1 μg/ml; at 8 h
S. aureus ATCC 29213 [10] = assay: Mice-eye model of S. aureus keratitis; type: in vivo; details: for mean corneal thickness: baseline 93.8±2.9 μm
Text: The in vivo efficacy of Compound 26 in the mice-eye model of S. aureus keratitis was examined. S. aureus is one of the major etiological agents for bacterial keratitis and the toxic secretions produced by this microorganism have been implicated in corneal melt, leading to significant morbidity and vision loss. […] A total of 8 doses were applied and the progression of the infection was monitored by slit lamp examination, anterior segment optical coherent tomography (AS-OCT) and microbiological enumeration of the bacterial bioburden. Mice cornea treated with PBS had severe clinical presentation indicated by chemosis, significant presence of hypopyon like materials and corneal infiltrates (FIG. 4).

S. aureus ATCC 29213 [11] = tested on: S. aureus ATCC 29213
[12] = tested on: human primary dermal fibroblasts (hDFs); assay: in vitro
Protocol: (§4) It was important to evaluate the cytotoxicity of Compound 26 on mammalian cells prior to in vivo studies. The cytotoxicity of Compound 26 in human lung epithelial cell line A549 and primary dermal fibroblasts (hDFs) was determined. Both of these cell culture models are already established for evaluation of cytotoxicity of antimicrobial peptides.
(§5) The stock solution of Compound 26 (500 μg/ml) was prepared fresh by directly dissolving Compound 26 in cell culture medium and used. Cells were treated with dimethyl sulfoxide (DMSO, 0.1% v/v) or nocodazole (5 μg/ml dissolved in DMSO) as controls. At the end of the treatment period, metabolic activities of cells were quantified by MTS-based cell viability assay. […] After 24 h treatment with Compound 26, A549 cells (c) and hDFs (d) were fixed, fluorescently stained with rhodamine-phalloidin (red), alexa fluor 488 conjugated anti-α-tubulin (green) and Hoechst 33342 (blue) and imaged using IN Cell Analyzer 2200 automated microscope. Representative images of cells treated with Compound 26 (62.5 μg/ml for 24 h) or nocodazole (10 μg/ml, toxicity control) are shown in FIG. 2 c,d.

[13] = tested on: human lung epithelial cell line A549; assay: in vitro
Protocol: as §4, §5

in vitro = details: human
Protocol: as §4, §5

VRE 1001 = type: cell-based, Enterococcus faecalis
Procedure, shortened: as §1

VRE 1008 = type: cell-based, Enterococcus faecalis
Procedure, shortened: as §1

VRE 1002 = type: cell-based, Enterococcus faecalis
Procedure, shortened: as §1

VRE 1004 = type: cell-based, Enterococcus faecalis
Procedure, shortened: as §1

MRSA ATCC 33591 [14] = tested on: MRSA ATCC 33591
Pseudomonas aeruginosa = assay: Activity against Pseudomonas aeruginosa; type: cell-based
Text: as §3

MRSA ATCC 33591 [15] = details: Table 10; MRSA ATCC 33591
Procedure, shortened: as §2

[16] = tested on: panel of antibiotic-resistant and antibiotic susceptible Gram-positive pathogens; details: average over tested strains
Procedure, shortened: as §2

With `CC[C@@H](C)[C@@H](NC(=O)[C@@H](CCC(N)=O)NC(=O)[C@H](CCCCNC(=O)[C@H](CCCCN)NC(=O)[C@H](CCCCN)NC(=O)[C@H](CCCCN)NC(=O)[C@H](CCCCN)NC(=O)[C@H](CCCCN)NC(=O)[C@@H](N)CCCNC(=N)N)NC(=O)[C@@H](NC(=O)[C@@H](Cc1ccccc1)NC)[C@@H](C)CC)C(=O)N[C@H](C(=O)N[C@@H](CO)C(=O)N[C@H]1C(=O)N[C@@H](C)C(=O)N[C@@H](CC(C)C)C(=O)N[C@@H]([C@@H](C)CC)C(=O)O[C@H]1C)[C@@H](C)CC` [Compound 54, Leu10-Teixobactin-3-(S3K-K5R) conjugate] (I: H-[dNMeF]IK[dQ][dI]IS[dT]ALI / II: H-RKKKKK; amide I:3-II:C; ester I:8-I:C) the “MIC A baumannii” value (A. baumannii) was 2 µg/mL (≈ 0.981 µM), the “MIC (MRSA)” value (MRSA) was 8 µg/mL (≈ 3.92 µM) and the “MIC Ecoli” value (E. coli) was 16 µg/mL (≈ 7.84 µM).
With `CN[C@H](CC(C)C)C(=O)N[C@H]1C(=O)N[C@@H](CC(N)=O)C(=O)N[C@H]2C(=O)N[C@H]3C(=O)N[C@H](C(=O)N[C@H](C(=O)O)c4cc(O)cc(O)c4-c4cc3ccc4O)[C@H](O)c3ccc(c(Cl)c3)Oc3cc2cc(c3O[C@@H]2O[C@H](CO)[C@@H](O)[C@H](O)[C@H]2O[C@H]2C[C@](C)(N)[C@H](O)[C@H](C)O2)Oc2ccc(cc2Cl)[C@H]1O` [Vancomycin, reference compound] the MIC (MRSA DM21455 (eye); Staphylococcus aureus, MRSA) was 2 µg/mL (≈ 1.38 µM), the MIC (VRE ATCC 700802; Enterococcus) was greater than 4 µg/mL and the MIC (M. smegmatis ATCC 607) was greater than 64 µg/mL. It also gave an MIC (ATCC 29212) greater than 4 µg/mL, an MIC (MRSA ATCC 700699; Staphylococcus aureus) of 2 µg/mL (≈ 1.38 µM) and an MIC ([1]; Staphylococcus aureus, ATCC29213) of 4 µg/mL (≈ 2.76 µM). The MIC (MRSA DR 42412 (sputum); Staphylococcus aureus, MRSA) was 2 µg/mL (≈ 1.38 µM).
`CC[C@@H](C)[C@@H](NC(=O)[C@@H](CCCNC(=N)N)NC(=O)[C@H](CO)NC(=O)[C@@H](NC(=O)[C@@H](Cc1ccccc1)NC)[C@@H](C)CC)C(=O)N[C@H](C(=O)N[C@@H](CO)C(=O)N[C@H]1C(=O)N[C@@H](C)C(=O)N[C@@H](CC(C)C)C(=O)N[C@@H]([C@@H](C)CC)C(=O)O[C@H]1C)[C@@H](C)CC` [Compound 26, D-Arg4-Leu10-teixobactin] showed an MIC [2] of less than 0.0625 µg/mL, an MIC [3] of 0.5 µg/mL (≈ 0.407 µM) and an MIC [4] of less than 0.0625 µg/mL. For the same molecule, the MIC [5] was less than 0.0625 µg/mL, the MIC [6] was 0.125 µg/mL (≈ 0.102 µM) and the MIC [7] was less than 0.0625 µg/mL. For the same molecule, the “corneal wound closure / reepithelialisation versus PBS” value [8] was “no significant difference in wound closure”, the MIC (MRSA 1003) was 0.5 µg/mL (≈ 0.407 µM) and the MIC (MRSA DM21455 (eye); DM21455 (eye)) was 0.0313 µg/mL (≈ 0.0255 µM). It also gave an MIC (VRE ATCC 700802; ATCC 700802) of 0.5 µg/mL (≈ 0.407 µM), an MIC (VRE ATCC 29212) of 0.5 µg/mL (≈ 0.407 µM) and an MIC (MRSA ATCC 700699; ATCC 700699) of 0.25 µg/mL (≈ 0.203 µM). The MIC ([1]; SA29213, Table 11) was less than 0.0625 µg/mL, the MIC (MRSA DR 42412 (sputum); DR 42412 (sputum)) was 0.0313 µg/mL (≈ 0.0255 µM) and the “MBC relative to MIC” value (S. aureus/MRSA strains) was no more than 4 times the MIC. For the same molecule, the “decrease in bacterial viability (time-kill)” value (S. aureus ATCC 29213 [9]) was “≥log10 decrease in bacterial viability”, the mean corneal thickness (S. aureus ATCC 29213 [10]; 24 h post treatment, 0.3% topical) was 92.3±12.5 μm and the mean corneal thickness (S. aureus ATCC 29213 [10]; 48 h post treatment, 0.3% topical) was 121.7±3.2 μm. For the same molecule, the “cornea with detectable bacterial colonies” value (S. aureus ATCC 29213 [10]; after 8 dosages) was “Five out of six”, the “mean log10 CFU/tissue” value (S. aureus ATCC 29213 [10]; corneal tissues harvested after 8 dosages, ± standard error of the mean) was 3.97±0.19 log10 CFU/tissue and the “clinical appearance of infected cornea (slit lamp)” value (S. aureus ATCC 29213 [10]; mice, 0.3% topical, 8 doses from 6 h p.i.) was “remained clear and no signs of corneal defects”. The “calculated frequency of resistance” value (S. aureus ATCC 29213 [11]) was < 10^−10, the “resistant mutants, single step resistance” value (S. aureus ATCC 29213 [11]; 5×, 10×, 20×MIC) was “could not be obtained” and the “cell morphology, high content images” value [12] was “absence of any cytoskeletal and nuclear disruption”. The “cell morphology, high content images” value [13] was “absence of any cytoskeletal and nuclear disruption”, the viability at 24 h, 250 µg/mL (in vitro; A549 lung epithelial cells) was 80% and the viability at 24 h, 250 µg/mL (in vitro; primary dermal fibroblasts (hDFs)) was 80%. For the same molecule, the MIC (VRE 1001) was 0.5 µg/mL (≈ 0.407 µM), the MIC (VRE 1008) was 0.5 µg/mL (≈ 0.407 µM) and the MIC (VRE 1002) was 1 µg/mL (≈ 0.813 µM). The MIC (VRE 1004) was 0.25 µg/mL (≈ 0.203 µM), the “calculated frequency of resistance” value (MRSA ATCC 33591 [14]) was < 10^−10 and the “resistant mutants, single step resistance” value (MRSA ATCC 33591 [14]; 5×, 10×, 20×MIC) was “could not be obtained”. For the same molecule, the “activity against Pseudomonas aeruginosa (Gram negative bacteria)” value (Pseudomonas aeruginosa) was “inactive”, the “MIC (MRSA)” value (MRSA ATCC 33591 [15]) was 0.125 µg/mL (≈ 0.102 µM) and the “average MIC” value [16] was 0.27 µg/mL.
